Laboratory results as given in publication PMC4175002, “The Design and Synthesis of Potent and Selective Inhibitors of Trypanosoma brucei Glycogen Synthase Kinase 3 for the Treatment of Human African Trypanosomiasis” (Journal of Medicinal Chemistry, 2014).

What was measured:
Test in all cases: Mammalian kinase profiling (DSTT panel)
Format in all cases: biochemical
ERK1 = target: T1, ERK1 (Homo sapiens, UniProt P27361); details: 10 μM; average percentage of remaining activity
T1 construct: purchased Division of Signal Transduction Therapy (DSTT), University of Dundee
Protocol: (§1) To assess the selectivity of the aminopyrazole inhibitors, remaining activity at 10 μM concentration was measured for compounds 4f, 4m, and 4y against a panel of 80 human PKs and for compound 9g against 124 human PKs. […] Compound 4m inhibited only two PKs, namely GSK3β and CDK2, at more than 80%.
(§2) Selected compounds were screened against a panel of mammalian kinases routinely run by the Division of Signal Transduction Therapy (DSTT) at the University of Dundee in duplicate at 10 μM.[32] Enzymes included in the panel and assay conditions are reported in the literature. All biochemical assays are run below the Km^app for the ATP for each enzyme, allowing comparison of inhibition across the panel.

Lck = target: T2, Lck (Homo sapiens, UniProt P06239); details: 10 μM; average percentage of remaining activity
T2 construct: purchased Division of Signal Transduction Therapy (DSTT), University of Dundee
Protocol: as §1, §2

S6K1 = target: T3, S6K1 (Homo sapiens, UniProt P23443); details: 10 μM; average percentage of remaining activity
T3 construct: purchased Division of Signal Transduction Therapy (DSTT), University of Dundee
Protocol: as §1, §2

P38a MAPK = target: T4, P38a MAPK (Homo sapiens, UniProt Q16539); details: 10 μM; average percentage of remaining activity
T4 construct: purchased Division of Signal Transduction Therapy (DSTT), University of Dundee
Protocol: as §1, §2

SmMLCK = target: T5, SmMLCK (Homo sapiens, UniProt Q15746); details: 10 μM; average percentage of remaining activity
T5 construct: purchased Division of Signal Transduction Therapy (DSTT), University of Dundee
Protocol: as §1, §2

PKBb = target: T6, PKBb (Homo sapiens, UniProt P31751); details: average percentage of remaining activity, read-out: PKBb activity compared to the control
T6 construct: purchased Division of Signal Transduction Therapy (DSTT), University of Dundee
Protocol: as §1, §2

VEG-FR = target: T7, VEG-FR (Homo sapiens, UniProt P17948); details: 10 μM; average percentage of remaining activity
T7 construct: purchased Division of Signal Transduction Therapy (DSTT), University of Dundee
Protocol: as §1, §2

IRR = target: T8, IRR (Homo sapiens, UniProt P14616); details: 10 μM; average percentage of remaining activity
T8 construct: purchased Division of Signal Transduction Therapy (DSTT), University of Dundee
Protocol: as §1, §2

CAMKKb = target: T9, CAMKKb (Homo sapiens, UniProt Q96RR4); details: 10 μM; average percentage of remaining activity
T9 construct: purchased Division of Signal Transduction Therapy (DSTT), University of Dundee
Protocol: as §1, §2

MSK1 = target: T10, MSK1 (Homo sapiens, UniProt O75582); details: 10 μM; average percentage of remaining activity
T10 construct: purchased Division of Signal Transduction Therapy (DSTT), University of Dundee
Protocol: as §1, §2

NEK2a = target: T11, NEK2a (Homo sapiens, UniProt P51955); details: 10 μM; average percentage of remaining activity
T11 construct: purchased Division of Signal Transduction Therapy (DSTT), University of Dundee
T11 sequence (P51955 1-445): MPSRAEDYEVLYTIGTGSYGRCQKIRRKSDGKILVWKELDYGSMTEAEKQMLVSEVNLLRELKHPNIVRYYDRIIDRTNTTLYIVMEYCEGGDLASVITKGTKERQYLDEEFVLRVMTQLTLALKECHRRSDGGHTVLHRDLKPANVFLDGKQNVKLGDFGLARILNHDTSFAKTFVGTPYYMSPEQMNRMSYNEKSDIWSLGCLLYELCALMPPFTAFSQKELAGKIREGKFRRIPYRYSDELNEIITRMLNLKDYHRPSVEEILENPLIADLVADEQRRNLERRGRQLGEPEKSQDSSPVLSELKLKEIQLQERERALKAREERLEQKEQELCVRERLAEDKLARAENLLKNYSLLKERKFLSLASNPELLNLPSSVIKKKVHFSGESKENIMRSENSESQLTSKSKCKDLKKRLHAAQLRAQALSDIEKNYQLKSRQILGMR
Protocol: as §1, §2

CAMK1 = target: T12, CAMK1 (Homo sapiens, UniProt Q14012); details: 10 μM; average percentage of remaining activity
T12 construct: purchased Division of Signal Transduction Therapy (DSTT), University of Dundee
Protocol: as §1, §2

MST2 = target: T13, MST2 (Homo sapiens, UniProt Q13188); details: 10 μM; average percentage of remaining activity
T13 construct: purchased Division of Signal Transduction Therapy (DSTT), University of Dundee
T13 sequence (Q13188 1-491): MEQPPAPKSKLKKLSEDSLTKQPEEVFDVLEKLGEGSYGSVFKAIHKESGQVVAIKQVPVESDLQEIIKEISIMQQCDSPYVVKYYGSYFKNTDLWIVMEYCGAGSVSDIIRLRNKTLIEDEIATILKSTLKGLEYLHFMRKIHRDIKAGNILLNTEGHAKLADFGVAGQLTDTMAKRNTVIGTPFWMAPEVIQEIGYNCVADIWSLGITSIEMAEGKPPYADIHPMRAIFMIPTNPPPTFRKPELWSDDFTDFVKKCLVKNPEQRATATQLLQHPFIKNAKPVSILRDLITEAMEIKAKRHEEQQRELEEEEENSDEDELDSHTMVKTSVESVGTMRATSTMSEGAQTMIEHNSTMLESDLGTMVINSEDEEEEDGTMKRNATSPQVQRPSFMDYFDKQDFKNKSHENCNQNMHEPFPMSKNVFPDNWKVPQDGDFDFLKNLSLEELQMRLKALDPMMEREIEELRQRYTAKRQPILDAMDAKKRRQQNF
Protocol: as §1, §2

CK1 = target: T14, CK1 (Homo sapiens, UniProt P48730); details: 10 μM; average percentage of remaining activity
T14 construct: purchased Division of Signal Transduction Therapy (DSTT), University of Dundee
Protocol: as §1, §2

MNK1 = target: T15, MNK1 (Homo sapiens, UniProt Q9BUB5); details: 10 μM; average percentage of remaining activity
T15 construct: purchased Division of Signal Transduction Therapy (DSTT), University of Dundee
Protocol: as §1, §2

PAK5 = target: T16, PAK5 (Homo sapiens, UniProt Q9P286); details: 10 μM; average percentage of remaining activity
T16 construct: purchased Division of Signal Transduction Therapy (DSTT), University of Dundee
Protocol: as §1, §2

BTK = target: T17, BTK (Homo sapiens, UniProt Q06187); details: 10 μM; average percentage of remaining activity
T17 construct: purchased Division of Signal Transduction Therapy (DSTT), University of Dundee
Protocol: as §1, §2

PKCa = target: T18, PKCa (Homo sapiens, UniProt P17252); details: 10 μM; average percentage of remaining activity
T18 construct: purchased Division of Signal Transduction Therapy (DSTT), University of Dundee
Protocol: as §1, §2

PAK4 = target: T19, PAK4 (Homo sapiens, UniProt O96013); details: 10 μM; average percentage of remaining activity
T19 construct: purchased Division of Signal Transduction Therapy (DSTT), University of Dundee
Protocol: as §1, §2

CHK2 = target: T20, CHK2 (Homo sapiens, UniProt O96017); details: 10 μM; average percentage of remaining activity
T20 construct: purchased Division of Signal Transduction Therapy (DSTT), University of Dundee
Protocol: as §1, §2

ROCK2 = target: T21, ROCK2 (Homo sapiens, UniProt O75116); details: 10 μM; average percentage of remaining activity
T21 construct: purchased Division of Signal Transduction Therapy (DSTT), University of Dundee
Protocol: as §1, §2

PKA = target: T22, PKA (Homo sapiens, UniProt P17612); details: 10 μM; average percentage of remaining activity
T22 construct: purchased Division of Signal Transduction Therapy (DSTT), University of Dundee
Protocol: as §1, §2

T20 sequence (O96017 whole entry): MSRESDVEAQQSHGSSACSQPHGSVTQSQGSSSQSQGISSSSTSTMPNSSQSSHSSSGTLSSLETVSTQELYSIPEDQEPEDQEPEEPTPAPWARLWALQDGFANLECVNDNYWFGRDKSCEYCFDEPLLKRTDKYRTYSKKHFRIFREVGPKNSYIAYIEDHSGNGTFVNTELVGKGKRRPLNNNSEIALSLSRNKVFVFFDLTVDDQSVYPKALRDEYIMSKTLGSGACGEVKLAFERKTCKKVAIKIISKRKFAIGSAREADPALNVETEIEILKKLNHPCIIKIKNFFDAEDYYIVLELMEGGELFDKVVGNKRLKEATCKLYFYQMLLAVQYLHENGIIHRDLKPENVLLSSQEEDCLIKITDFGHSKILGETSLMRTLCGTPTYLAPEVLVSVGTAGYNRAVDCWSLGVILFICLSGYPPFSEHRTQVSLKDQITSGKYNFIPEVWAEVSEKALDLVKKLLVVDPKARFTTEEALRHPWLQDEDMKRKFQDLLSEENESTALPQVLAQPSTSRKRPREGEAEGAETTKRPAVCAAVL
T17 sequence (Q06187 whole entry): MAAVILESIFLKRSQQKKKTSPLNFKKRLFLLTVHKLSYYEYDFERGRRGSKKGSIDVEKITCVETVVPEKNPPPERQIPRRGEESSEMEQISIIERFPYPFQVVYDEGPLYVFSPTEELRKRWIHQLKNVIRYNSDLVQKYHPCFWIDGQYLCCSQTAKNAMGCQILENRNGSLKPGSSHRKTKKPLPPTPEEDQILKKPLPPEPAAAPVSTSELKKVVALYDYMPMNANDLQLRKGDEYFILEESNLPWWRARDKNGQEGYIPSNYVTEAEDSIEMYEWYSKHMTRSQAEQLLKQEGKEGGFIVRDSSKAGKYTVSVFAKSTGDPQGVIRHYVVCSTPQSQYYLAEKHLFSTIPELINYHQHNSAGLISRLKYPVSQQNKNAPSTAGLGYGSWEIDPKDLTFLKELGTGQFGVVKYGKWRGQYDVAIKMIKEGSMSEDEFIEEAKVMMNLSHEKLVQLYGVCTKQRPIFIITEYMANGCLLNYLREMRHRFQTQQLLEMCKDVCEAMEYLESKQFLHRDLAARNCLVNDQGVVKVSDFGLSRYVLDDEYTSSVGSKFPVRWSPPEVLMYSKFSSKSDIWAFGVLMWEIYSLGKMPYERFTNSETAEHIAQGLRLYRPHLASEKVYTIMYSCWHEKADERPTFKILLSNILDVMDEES
T5 sequence (Q15746 923-1914): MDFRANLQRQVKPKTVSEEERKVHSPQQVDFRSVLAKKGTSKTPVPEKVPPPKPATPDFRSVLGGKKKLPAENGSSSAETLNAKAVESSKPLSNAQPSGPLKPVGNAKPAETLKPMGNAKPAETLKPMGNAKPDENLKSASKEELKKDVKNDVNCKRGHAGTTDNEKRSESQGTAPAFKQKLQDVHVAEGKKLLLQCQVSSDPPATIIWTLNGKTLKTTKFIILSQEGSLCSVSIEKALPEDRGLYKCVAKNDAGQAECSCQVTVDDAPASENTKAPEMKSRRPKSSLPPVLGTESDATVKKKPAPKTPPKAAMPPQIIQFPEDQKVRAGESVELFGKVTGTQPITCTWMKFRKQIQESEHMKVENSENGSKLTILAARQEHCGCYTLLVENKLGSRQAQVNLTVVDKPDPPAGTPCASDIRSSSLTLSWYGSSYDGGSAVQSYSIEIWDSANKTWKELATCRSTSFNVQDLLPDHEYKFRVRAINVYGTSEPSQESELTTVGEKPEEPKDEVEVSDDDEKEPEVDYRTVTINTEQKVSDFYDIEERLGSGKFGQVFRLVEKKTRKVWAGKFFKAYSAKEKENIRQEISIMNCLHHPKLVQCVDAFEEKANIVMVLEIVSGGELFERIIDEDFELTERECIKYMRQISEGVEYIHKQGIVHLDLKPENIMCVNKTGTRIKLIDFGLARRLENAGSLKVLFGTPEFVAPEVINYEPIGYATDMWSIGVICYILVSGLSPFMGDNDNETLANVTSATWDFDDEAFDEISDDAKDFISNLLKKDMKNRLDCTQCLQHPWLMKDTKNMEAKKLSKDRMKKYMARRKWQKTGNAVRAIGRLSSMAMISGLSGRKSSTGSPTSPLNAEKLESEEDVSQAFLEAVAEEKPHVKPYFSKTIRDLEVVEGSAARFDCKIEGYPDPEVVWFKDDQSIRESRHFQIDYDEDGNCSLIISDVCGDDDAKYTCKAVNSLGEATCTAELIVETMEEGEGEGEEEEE
T16 sequence (Q9P286 whole entry): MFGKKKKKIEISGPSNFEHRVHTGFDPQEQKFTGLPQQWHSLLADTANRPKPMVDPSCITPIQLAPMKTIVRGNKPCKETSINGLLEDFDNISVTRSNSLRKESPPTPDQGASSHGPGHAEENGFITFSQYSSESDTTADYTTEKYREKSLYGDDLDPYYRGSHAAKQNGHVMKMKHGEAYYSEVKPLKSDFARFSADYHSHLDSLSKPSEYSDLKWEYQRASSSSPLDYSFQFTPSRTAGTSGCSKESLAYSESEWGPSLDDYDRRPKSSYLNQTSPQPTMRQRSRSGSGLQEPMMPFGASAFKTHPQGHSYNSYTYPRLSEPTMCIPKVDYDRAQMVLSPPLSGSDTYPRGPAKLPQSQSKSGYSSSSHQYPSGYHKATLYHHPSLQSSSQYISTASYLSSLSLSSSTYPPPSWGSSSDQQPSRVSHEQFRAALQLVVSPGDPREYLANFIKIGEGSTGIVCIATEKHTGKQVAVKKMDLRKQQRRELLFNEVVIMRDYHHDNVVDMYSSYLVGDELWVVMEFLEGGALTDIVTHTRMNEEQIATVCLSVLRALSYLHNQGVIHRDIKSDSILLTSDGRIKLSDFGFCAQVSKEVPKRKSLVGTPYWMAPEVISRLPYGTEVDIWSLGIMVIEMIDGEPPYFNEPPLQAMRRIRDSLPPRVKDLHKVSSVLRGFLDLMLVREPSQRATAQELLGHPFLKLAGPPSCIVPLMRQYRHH
T3 sequence (P23443 whole entry): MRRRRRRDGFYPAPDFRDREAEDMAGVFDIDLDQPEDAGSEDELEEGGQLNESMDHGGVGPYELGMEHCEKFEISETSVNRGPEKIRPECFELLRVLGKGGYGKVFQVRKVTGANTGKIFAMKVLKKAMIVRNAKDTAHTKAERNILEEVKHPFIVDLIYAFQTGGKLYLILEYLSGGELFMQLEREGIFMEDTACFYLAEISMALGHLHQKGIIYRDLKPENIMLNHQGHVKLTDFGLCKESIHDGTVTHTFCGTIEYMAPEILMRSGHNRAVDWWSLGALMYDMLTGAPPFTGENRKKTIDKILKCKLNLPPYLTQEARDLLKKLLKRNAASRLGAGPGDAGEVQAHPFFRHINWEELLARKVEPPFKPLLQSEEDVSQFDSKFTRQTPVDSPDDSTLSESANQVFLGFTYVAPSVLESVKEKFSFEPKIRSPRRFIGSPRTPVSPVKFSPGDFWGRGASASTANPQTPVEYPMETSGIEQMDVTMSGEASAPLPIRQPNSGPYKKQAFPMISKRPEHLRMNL
T2 sequence (P06239 whole entry): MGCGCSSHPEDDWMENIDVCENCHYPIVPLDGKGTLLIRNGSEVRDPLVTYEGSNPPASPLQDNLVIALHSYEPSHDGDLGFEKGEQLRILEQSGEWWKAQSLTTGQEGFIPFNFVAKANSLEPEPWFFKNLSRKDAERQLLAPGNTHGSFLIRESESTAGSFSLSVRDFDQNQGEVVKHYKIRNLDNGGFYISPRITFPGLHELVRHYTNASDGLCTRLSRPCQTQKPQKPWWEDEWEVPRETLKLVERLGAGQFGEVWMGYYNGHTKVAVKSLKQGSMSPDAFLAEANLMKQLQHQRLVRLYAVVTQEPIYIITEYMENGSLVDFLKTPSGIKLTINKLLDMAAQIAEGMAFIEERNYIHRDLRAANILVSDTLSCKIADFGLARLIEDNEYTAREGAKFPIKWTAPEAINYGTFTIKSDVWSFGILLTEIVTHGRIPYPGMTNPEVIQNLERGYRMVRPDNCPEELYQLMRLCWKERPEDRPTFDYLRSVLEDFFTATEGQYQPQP
T10 sequence (O75582 whole entry): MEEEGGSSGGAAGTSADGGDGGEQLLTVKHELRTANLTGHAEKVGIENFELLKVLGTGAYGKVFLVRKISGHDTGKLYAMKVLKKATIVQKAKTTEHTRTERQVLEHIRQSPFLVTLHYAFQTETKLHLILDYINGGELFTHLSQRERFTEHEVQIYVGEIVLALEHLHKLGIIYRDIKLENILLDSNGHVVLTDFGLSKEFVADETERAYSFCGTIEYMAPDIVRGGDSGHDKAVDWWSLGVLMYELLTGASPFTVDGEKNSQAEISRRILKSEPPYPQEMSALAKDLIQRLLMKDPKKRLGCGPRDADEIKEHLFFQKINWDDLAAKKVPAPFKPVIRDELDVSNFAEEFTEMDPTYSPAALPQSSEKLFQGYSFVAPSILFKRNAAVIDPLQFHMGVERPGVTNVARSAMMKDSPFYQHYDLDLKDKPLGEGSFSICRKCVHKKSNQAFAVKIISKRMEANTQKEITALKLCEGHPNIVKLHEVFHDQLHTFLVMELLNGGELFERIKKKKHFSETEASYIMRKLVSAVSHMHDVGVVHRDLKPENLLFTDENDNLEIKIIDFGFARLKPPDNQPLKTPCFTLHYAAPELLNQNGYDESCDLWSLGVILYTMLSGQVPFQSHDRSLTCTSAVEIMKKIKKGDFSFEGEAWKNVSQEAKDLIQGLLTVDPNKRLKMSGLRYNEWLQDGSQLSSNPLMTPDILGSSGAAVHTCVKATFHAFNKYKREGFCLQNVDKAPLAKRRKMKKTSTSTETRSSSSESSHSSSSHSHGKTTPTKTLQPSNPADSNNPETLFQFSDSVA

| Compound | ERK1 activity compared to the control (ERK1) | Lck activity compared to the control (Lck) | S6K1 activity compared to the control (S6K1) | P38a MAPK activity compared to the control (P38a MAPK) | SmMLCK activity compared to the control (SmMLCK) | remaining activity at 10 µM (PKBb) | VEG-FR activity compared to the control (VEG-FR) | IRR activity compared to the control (IRR) | CAMKKb activity compared to the control (CAMKKb) | MSK1 activity compared to the control (MSK1) | NEK2a activity compared to the control (NEK2a) | CAMK1 activity compared to the control (CAMK1) | MST2 activity compared to the control (MST2) | CK1 activity compared to the control (CK1) | MNK1 activity compared to the control (MNK1) | PAK5 activity compared to the control (PAK5) | BTK activity compared to the control (BTK) | PKCa activity compared to the control (PKCa) | PAK4 activity compared to the control (PAK4) | CHK2 activity compared to the control (CHK2) | further results |
| --- | --- | --- | --- | --- | --- | --- | --- | --- | --- | --- | --- | --- | --- | --- | --- | --- | --- | --- | --- | --- | --- |
| CO[C@H]1CC[C@H](NC(=O)c2n[nH]cc2NC(=O)c2ccccc2)CC1 [Compound 4f, 4-Benzamido-N-(4-methoxycyclohexyl)-1H-pyrazole-3-carboxamide] | 75% | 76% | 100% | 81% | 25% | 45% | 52% | 39% | 34% | 80% | 100% | 36% | 72% | 55% | 76% | 68% | 100% | 49% | 68% | 100% | ROCK2 activity compared to the control (ROCK2): 81%; PKA activity compared to the control (PKA): 81% |
| COc1cccc(OC)c1C(=O)Nc1c[nH]nc1C(=O)NC1CCC(OC)CC1 (stereo not drawn) [Compound 4m, 4-(2,6-Dimethoxybenzamido)-N-(4-methoxycyclohexyl)-1H-pyrazole-3-carboxamide] | 100% | 90% | 100% | 80% | 65% | 98% | 90% | 87% | 50% | 86% | 99% | 76% | 81% | 88% | 81% | 75% | 100% | 90% | 74% | 75% | ROCK2 activity compared to the control (ROCK2): 74%; PKA activity compared to the control (PKA): 74% |
| CO[C@H]1CC[C@H](NC(=O)c2n[nH]cc2NC(=O)c2ccc(-c3ccccc3)o2)CC1 [Compound 4y, N-(4-Methoxycyclohexyl)-4-(5-phenylfuran-2-carboxamido)-1H-pyrazole-3-carboxamide] | 33% | 67% | 58% | 71% | 23% | 84% | 29% | 26% | 27% | 66% | 69% | 46% | 69% | 25% | 82% | 47% | 100% | 48% | 27% | 51% | ROCK2 activity compared to the control (ROCK2): 72%; PKA activity compared to the control (PKA): 76% |
